Tests used:
[1] = test system: tolC-deficient JW5503 strain (BW25113ΔtolC); test: Cross streak method, growth inhibition (antibacterial) width; format: cell-based, Escherichia coli; details: L agar, overnight at 30° C.
Procedure: (§1) Influence of a tolC gene deficiency on N-acetylserine (NAS) and O-acetylserine (OAS) sensitivity was investigated in a strain which is deficient in a part of or the entire tolC gene by the cross streak method. In order to compare growth inhibition by NAS (2 M), OAS (2 M), L-cysteine (2 M) and L-serine (1 M), the tolC-deficient JW5503 strain, and the wild-type BW25113 strain used as a control, were cultured overnight in the L liquid medium, and each culture medium was streaked on the L agar medium with a platinum loop. A strip-shaped filter paper onto which each of the aforementioned reagents was dropped, was placed on each of the strains in a direction perpendicular to the streaking direction, and the strains were cultured overnight at 30° C. After the culture, lengths of the filter paper on which growth of the bacteria was inhibited (antibacterial widths) were measured, and the antibacterial activities of the regents on both the strains were compared.

wild-type BW25113 strain = test: as above; format: cell-based, Escherichia coli; details: L agar, overnight at 30° C.
Procedure: as §1

wild-type strains = test: Growth on LB agar media containing cysteine (Keio collection screening); format: cell-based, E. coli BW25113; details: overnight at 37° C.
Procedure: The 3,985 clones of the Keio collection were cultured at 37° C. for 15 hours in 0.5 ml of LB liquid medium. This culture medium was stamped on LB agar media containing cysteine at different concentrations (0, 15, 20, 25 mM), and culture was performed overnight at 37° C. Clones that were sensitive to cysteine at a concentration not higher than the growth inhibition concentration of cysteine for wild-type strains (20 mM) were visually selected. […] A strain which is deficient in a part of or the entire tolC gene was obtained as a clone showing particularly strong and distinctive cysteine sensitivity among the above candidates. TolC is an example of a protein called a porin, which localizes in the outer membrane and forms a channel for substance transportation via the outer membrane. Although the presence of many other porins was known for E. coli, TolC was the only porin selected by this screening, among the several candidates considered showing strong cysteine sensitivity.

[2] = test system: tolC gene-deficient strain JW5503/pCA24; test: Growth test of serially diluted cell suspensions spotted on L agar medium containing cysteine; format: cell-based, Escherichia coli; details: L agar with 10, 15, 20 mM cysteine, 37° C. overnight; FIG. 1
Excerpt: Since a strain which is deficient in a part of or the entire tolC gene was obtained by the screening of the Keio Collection, growth of the gene-deficient strain was observed on the agar medium containing cysteine of different concentrations in order to analyze the sensitivity of that strain to cysteine in more detail. The strain which is deficient in a part of or the entire tolC gene used here was the JW5503 strain (Keio collection), and the parent strain thereof was the BW25113 strain (Andreas Haldimann, A. and Wanner, B. L., J. Bacteriol., 2001 November; 183 (21):6384-6393). The plasmid carrying the tolC gene for a complementation experiment was pTolC (ASKA clone, Kitagawa, M, et al., 2005; DNA Res., 12:291-299), and the vector used as the base thereof was pCA24 (vector for ASKA clone, Kitagawa, M, et al., 2005, DNA Res., 12:291-299).
The bacteria containing each of the plasmids were each inoculated into 5 ml of L medium (10 g/L of Bacto trypton, 5 g/L of Bacto yeast extract, 5 g/L of NaCl), and cultured overnight at 37° C. […]

[3] = reagent 2 M on filter paper strip
[4] = reagent 1 M on filter paper strip

Q: For `N[C@@H](CS)C(=O)O` [L-Cysteine], which Growth inhibition width [1, 3] is on record?
A: 5 mm

Q: What about the Growth inhibition width (wild-type BW25113 strain; [3]) of the same molecule?
A: <1 mm

Q: And the “growth inhibition concentration of cysteine for wild-type strains” value (wild-type strains)?
A: 20 mM

Q: What about the “cysteine sensitivity of growth compared with the control strain BW25113/pCA24” value [2] of the same molecule?
A: marked cysteine sensitivity

Q: For `N[C@@H](CO)C(=O)O` [L-Serine], which Growth inhibition width [1, 4] is on record?
A: 0 mm

Q: And the Growth inhibition width (wild-type BW25113 strain; [4])?
A: 0 mm

Q: How did the Growth inhibition width [1, 3] turn out when `CC(=O)N[C@@H](CO)C(=O)O` [N-Acetylserine] was run?
A: 10 mm

Q: What about the Growth inhibition width (wild-type BW25113 strain; [3]) of the same molecule?
A: <2 mm

Q: Which results are given for `CC(=O)OC[C@H](N)C(=O)O` [O-Acetylserine]?
A: Growth inhibition width [1, 3]: 4 mm; Growth inhibition width (wild-type BW25113 strain; [3]): <1 mm
